Key:
[1] = system: WT CYP121A1 heme thiolate-CO complex
[2] = system: CYP121A1 dimer; settings: cited from earlier work
[3] = system: WT CYP121A1
[4] = system: Mtb; settings: cited from earlier work

## O=C1N[C@@H](Cc2ccc(O)cc2)C(=O)N[C@H]1Cc1ccc(O)cc1 [cYY, cyclo-L-Tyr-L-Tyr]
[1]
  change of heme thiolate-CO complex stability with bound substrate: little change

## Clc1ccccc1C(c1ccccc1)(c1ccccc1)n1ccnc1 [clotrimazole]
[2]
  effect on dimerization of the enzyme: disrupts dimerization of the enzyme

## Clc1ccc(COC(Cn2ccnc2)c2ccc(Cl)cc2Cl)cc1 (centres unmarked) [econazole]
[2]
  effect on dimerization of the enzyme: disrupts dimerization of the enzyme

## CC(=O)N1CCN(c2ccc(OCC3COC(Cn4ccnc4)(c4ccc(Cl)cc4Cl)O3)cc2)CC1 (centres unmarked) [ketoconazole]
[3]
  effect of ligand on thermal stability: modest increase in the stability
[4]
  inhibition of Mtb growth: does not significantly inhibit Mtb growth
